Results taken from patent publication US4265829A, “Halogenated-naphthalenetriyltris(sulfonylimino)-aryl disulfonic acids and salts thereof” (American Cyanamid Company, priority 1979, dated 1981).
Structures can show the parent of a compound that is named as a salt.

Legend:
[1] = system: shunt pathway activated by cobra venom factor; assay: Test Code 036 (C-Shunt inhibitor); type: cell-based; conditions: serial twofold dilution assay; human erythrocytes in autologous serum; higher well number indicates higher activity
Description: (§1) An active inhibitor protects C2 from C1 and C4; (ii) Test Code 035 (C3-C9 inhibitor)--This test determines the ability of the late components of human complement (C3-C9) to lyse EAC 142 in the presence of appropriate dilutions of the test compound. An active inhibitor protects EAC 142 from lysis by human C3-C9; (iii) Test Code 036 (C-Shunt inhibitor)--In this test human erythrocytes rendered fragile are lysed in autologous serum via the shunt pathway activated by cobra venom factor in the presence of appropriate dilutions of the test compound. Inhibition of the shunt pathway results in failure of lysis; (iv) Forssman Vasculitis Test--Here, the well known complement dependent lesion, Forssman vasculitis, is produced in guinea pigs by intradermal injection of rabbit anti-Forssman antiserum. […] Percent inhibition is calculated by comparison with simultaneous controls. […]

[2] = system: late components of human complement (C3-C9); assay: Test Code 035 (C3-C9 inhibitor); type: biochemical; conditions: serial twofold dilution assay; lysis of EAC 142; higher well number indicates higher activity
Description: as §1

[3] = system: serum complement activity; assay: Guinea Pig Intraperitoneal Test (GPIP); type: in vivo; conditions: 200 mg./kg. i.p.
Description: An active inhibitor protects C2 from C1 and C4; (ii) Test Code 035 (C3-C9 inhibitor)--This test determines the ability of the late components of human complement (C3-C9) to lyse EAC 142 in the presence of appropriate dilutions of the test compound. An active inhibitor protects EAC 142 from lysis by human C3-C9; (iii) Test Code 036 (C-Shunt inhibitor)--In this test human erythrocytes rendered fragile are lysed in autologous serum via the shunt pathway activated by cobra venom factor in the presence of appropriate dilutions of the test compound. Inhibition of the shunt pathway results in failure of lysis; (iv) Forssman Vasculitis Test--Here, the well known complement dependent lesion, Forssman vasculitis, is produced in guinea pigs by intradermal injection of rabbit anti-Forssman antiserum. The lesion is measured in terms of diameter, edema and hemorrhage and the extent to which a combined index of these is inhibited by prior intraperitoneal injection of the test compound at 200 mg./kg. is then reported, unless otherwise stated; (v) Forssman Shock Test--Lethal shock is produced in guinea pigs by an i.v. injection of anti-Forssman antiserum and the harmonic mean death time of treated guinea pigs is compared with that of simultaneous controls; (vi) Complement Level Reduction Test--In this test, the above dosed guinea pigs, or others, are bled for serum and the complement level is determined in undiluted serum by the capillary tube method of U.S. Pat. No. 3,876,376 and compared to undosed control guinea pigs; (vii) Cap 50 Test--Here, appropriate amounts of the test compound are added to a pool of guinea pig serum in vitro, after which the undiluted serum capillary tube assay referred to above is run. The concentration of compound inhibiting 50% is reported; (viii) Guinea Pig Intraperitoneal Test (GPIP)--Guinea pigs weighing about 300 g. are dosed intraperitoneally (i.p.) with 200 mg./kg. of the test compound dissolved in saline and adjusted to pH 7-8. […] Percent inhibition is calculated by comparison with simultaneous controls. […]

[4] = target: activated human C1 (Homo sapiens, UniProt P09871); assay: Test Code 026 (C1 inhibitor); type: biochemical; conditions: serial twofold dilution assay; higher well number indicates higher activity
Description: as §1

## O=S(=O)(O)c1cc(NS(=O)(=O)c2cc(S(=O)(=O)Nc3cc(S(=O)(=O)O)cc(S(=O)(=O)O)c3)c3c(Cl)ccc(S(=O)(=O)Nc4cc(S(=O)(=O)O)cc(S(=O)(=O)O)c4)c3c2)cc(S(=O)(=O)O)c1 [5,5',5"-[(8-Chloro-1,3,5-napthalenetriyl)tris (sulfonylimino)]-tri-1,3-benzenedisulfonic acid, hexasodium salt]
[1]
  Shunt Inhibition 036 Wells: +5 Wells
[2]
  C-Late 035 Wells: +1 Wells
[3]; serum taken 30 minutes after injection
  In Vivo Activity (Guinea Pig) % Inhibition Intraperitoneal, 30 minutes: -67%
[3]; serum taken 60 minutes after injection
  In Vivo Activity (Guinea Pig) % Inhibition Intraperitoneal, 60 minutes: -72%
[3]; serum taken 120 minutes after injection
  In Vivo Activity (Guinea Pig) % Inhibition Intraperitoneal, 120 minutes: -81%
[4]
  Cl 026 Wells: +7 Wells
